Measurements published in PMC12325145, “Preclinical evaluation of [^68Ga]Ga-AAZTA-FAPI-46: a novel PET tracer for targeting fibroblast activation protein (FAP)” (EJNMMI Radiopharmacy and Chemistry, 2025).

Target: T1, fibroblast activation protein (FAP) (Mus musculus, UniProt P97321)
T1 construct: murine FAP stably expressed in HEK293 cells (pCMV6-Kan/Neo-mFAP, Origene MC206606)
T1 sequence (P97321 1-761): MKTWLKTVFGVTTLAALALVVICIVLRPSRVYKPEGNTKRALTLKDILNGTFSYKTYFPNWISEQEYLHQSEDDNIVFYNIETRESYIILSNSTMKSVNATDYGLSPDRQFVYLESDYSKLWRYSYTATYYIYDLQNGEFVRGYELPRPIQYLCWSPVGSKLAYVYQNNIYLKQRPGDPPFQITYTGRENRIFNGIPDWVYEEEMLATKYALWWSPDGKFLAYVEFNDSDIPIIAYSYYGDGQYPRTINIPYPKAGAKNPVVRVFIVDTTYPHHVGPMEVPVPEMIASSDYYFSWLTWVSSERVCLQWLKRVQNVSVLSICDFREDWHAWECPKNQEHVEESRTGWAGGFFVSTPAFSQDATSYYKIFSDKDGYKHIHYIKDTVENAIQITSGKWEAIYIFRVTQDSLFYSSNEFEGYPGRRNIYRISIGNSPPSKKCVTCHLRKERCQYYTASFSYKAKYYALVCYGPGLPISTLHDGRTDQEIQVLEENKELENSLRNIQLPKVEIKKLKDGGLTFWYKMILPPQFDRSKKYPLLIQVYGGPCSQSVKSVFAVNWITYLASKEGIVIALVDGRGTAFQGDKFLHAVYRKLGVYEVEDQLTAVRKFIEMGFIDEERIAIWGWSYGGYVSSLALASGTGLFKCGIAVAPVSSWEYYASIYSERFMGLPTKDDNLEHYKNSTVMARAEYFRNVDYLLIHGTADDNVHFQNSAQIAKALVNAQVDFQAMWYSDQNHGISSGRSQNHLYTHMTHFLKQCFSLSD
Test: radioligand competition with unlabelled tracer on HEK293T-FAP cells, […] °C, […] h
Format: cell-based

Structure (SMILES): CN(CCCN1CCN(C(=O)CCCCC2(N(CC(=O)[O-])CC(=O)[O-])CN(CC(=O)[O-])CCN(CC(=O)[O-])C2)CC1)c1ccc2nccc(C(=O)NCC(=O)N3CC(F)(F)C[C@@H]3C#N)c2c1.[68Ga+3] [[^68Ga]Ga-AAZTA-FAPI-46]
- IC50: 4.61 ± 0.21 nM
